Laboratory results as given in the supplement of paper PMC5844555.

What was measured:
Assay in all cases: 3' UTR reporter interaction score (median-centred robust z-score of log2 firefly/Renilla activity); higher = less repression of the 3' UTR reporter
Conditions in all cases: HEK293T; 48 h
TP53 = test system: TP53
Outline: (§1)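 A firefly luc2P reporter carrying the gene's 3' UTR (100 ng), Renilla pRL-TK control (20 ng) and miRNA mimic (2.5 pmol) were co-transfected with DharmaFECT Duo into HEK293T cells plated at 10,000/well in 96-well plates. Luciferase activities were read 48 h post-transfection. The interaction score is the log firefly/Renilla ratio as a per-plate robust z-score from median and median absolute deviation, median-centred per miRNA, and more negative indicates interaction. Values are averages of at least two independent screens.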

ZEB2 = test system: ZEB2
Outline: as §1

HRAS = test system: HRAS
Outline: as §1

FBXW7 = test system: FBXW7
Outline: as §1

MYT1L = test system: MYT1L
Outline: as §1

PHF6 = test system: PHF6
Outline: as §1

MYCN = test system: MYCN
Outline: as §1

NOTCH1 = test system: NOTCH1
Outline: as §1

MYC = test system: MYC
Outline: as §1

PHOX2B = test system: PHOX2B
Outline: as §1

MYB = test system: MYB
Outline: as §1

BRCA2 = test system: BRCA2
Outline: as §1

RB1 = test system: RB1
Outline: as §1

EZH2 = test system: EZH2
Outline: as §1

Sequence	3' UTR reporter interaction score (TP53)	3' UTR reporter interaction score (ZEB2)	3' UTR reporter interaction score (HRAS)	3' UTR reporter interaction score (FBXW7)	3' UTR reporter interaction score (MYT1L)	3' UTR reporter interaction score (PHF6)	3' UTR reporter interaction score (MYCN)	3' UTR reporter interaction score (NOTCH1)	3' UTR reporter interaction score (MYC)	3' UTR reporter interaction score (PHOX2B)	3' UTR reporter interaction score (MYB)	3' UTR reporter interaction score (BRCA2)	3' UTR reporter interaction score (RB1)	3' UTR reporter interaction score (EZH2)
AAAGCGCUUCCCUUUGCUGGA	-1.12	0.684	-0.256	0.199	0.0314	0.797	-0.601	0.538	-0.245	0.212	-0.491	-0.221	-0.977	0.396
AAAGCGCUUCUCUUUAGAGGA	-0.0242	0.196	0.681	0.112	-0.414	-0.164	-0.629	0.581	-0.0856	0.331	-0.0819	-0.521	-0.785	-0.591
AAAGUAGCUGUACCAUUUGC	0.1	1.39	-1.6	0.57	0.719	-0.00285	0.676	1.58	-0.314	-0.926	1.14	0.0379	-0.735	-0.677
AAAGUGCAUCCUUUUAGAGGUUU	0.429	0.526	-0.233	0.961	-1.16	-0.0516	0.904	1.67	-0.372	0.434	-1.97	-0.233	-0.148	-0.589
AAAGUGCAUCCUUUUAGAGUGUUAC	1.22	0.599	0.648	0.956	-1.2	-0.315	1.43	2.14	0.046	-0.251	-1.8	-0.464	0.0975	-0.596
AAAGUGCAUCUUUUUAGAGGAU	1.24	-0.325	0.493	0.857	-0.436	-0.0249	1.77	0.996	0.685	0.606	-2.04	-0.243	-0.176	-0.581
AAAGUGCCUCCUUUUAGAGUGU	-0.0121	0.00481	0.107	0.988	0.764	1.02	1.27	0.0165	0.329	-1.07	-0.416	-0.0588	-0.21	-0.239
AAAGUGCUGCGACAUUUGAGCGU	-1.1	-0.121	0.79	0.296	-0.68	1.58	0.612	1.03	0.745	0.221	-1.18	0.603	1.06	-1.36
AAAGUGCUUCCCUUUGGACUGU	0.0148	-0.113	0.194	1.67	-1.48	1.36	-0.799	1.13	-0.227	0.0276	-1.07	0.671	1.36	-0.72
AAAGUGCUUCCUUUUAGAGGG	0.0995	0.554	0.261	0.755	-0.373	0.188	-0.401	1.06	0.194	1.35	-0.541	-0.12	0.0746	-1.28
